This experiment concerns Cyclin-dependent kinase. Description: Cyclin-dependent kinase inhibition, % inhibition at 10 nM (library Examples 99-270). The experiment is classed as biochemical. Conditions: 10 nM compound. An outline of the steps: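 Radiometric filter assay: kinase transfers ³²P/³³P from 25 μM ATP to a protein substrate in pH 7.4 HEPES buffer with MgCl2, 2% DMSO, 30° C, 20 min. EDTA stop; substrate captured on nitrocellulose or phosphocellulose membrane, washed with phosphoric acid, counted by phosphorimager.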
In the case of `CCNCc1cncc(-c2ccc3[nH]nc(-c4ncc(C(=O)NCc5ccc(-c6csnn6)cc5)[nH]4)c3c2)c1C` [Example 224], the “% Inhib @ 10 nM” value came to 72%.

Consider `CCNCc1cncc(-c2ccc3[nH]nc(-c4ncc(C(=O)N(C)Cc5cnn(-c6ccccc6)c5)[nH]4)c3c2)c1C` [Example 225, 2-(5-{5-[(ethylamino)methyl]-4-methylpyridin-3-yl}-1H-indazol-3-yl)-N-methyl-N-[(1-phenyl-1H-pyrazol-4-yl)methyl]-1H-imidazole-5-carboxamide], for which the “% Inhib @ 10 nM” value was found to be 70%.

For `CCNCc1cncc(-c2ccc3[nH]nc(-c4ncc(C(=O)N5CCN(c6ncccc6C#N)CC5)[nH]4)c3c2)c1C` [Example 226], the “% Inhib @ 10 nM” value came out at 62%.

For the molecule `CCNCc1cncc(-c2ccc3[nH]nc(-c4ncc(C(=O)N5Cc6ccccc6C5)[nH]4)c3c2)c1C` [Example 227, [(5-{3-[5-(1,3-dihydro-2H-isoindol-2-ylcarbonyl)-1H-imidazol-2-yl]-1H-indazol-5-yl}-4-methylpyridin-3-yl)methyl]ethylamine], the “% Inhib @ 10 nM” value came out at 84%.

As for `CCNCc1cncc(-c2ccc3[nH]nc(-c4ncc(C(=O)N5CCN(Cc6ccccn6)CC5)[nH]4)c3c2)c1C` [Example 228, ethyl({4-methyl-5-[3-(5-{[4-(pyridin-2-ylmethyl)piperazin-1-yl]carbonyl)-1H-imidazol-2-yl)-1H-indazol-5-yl]pyridin-3-yl}methyl)amine], the “% Inhib @ 10 nM” value is on record as 50%.

Take `CCNCc1cncc(-c2ccc3[nH]nc(-c4ncc(C(=O)N5CCN(CC6CCCO6)CC5)[nH]4)c3c2)c1C` (stereo not drawn) [Example 229, ethyl({4-methyl-5-[3-(5-{[4-(tetrahydrofuran-2-ylmethyl)piperazin-1-yl]carbonyl}-1H-imidazol-2-yl)-1H-indazol-5-yl]pyridin-3-yl}methyl)amine]: the “% Inhib @ 10 nM” value was found to be 33%.

Consider `CCNCc1cncc(-c2ccc3[nH]nc(-c4ncc(C(=O)N5CCN(c6ccc(F)cc6F)CC5)[nH]4)c3c2)c1C` [Example 230], for which the “% Inhib @ 10 nM” value was found to be 74%.

In the case of `CCNCc1cncc(-c2ccc3[nH]nc(-c4ncc(C(=O)N5CCNC(=O)CC5)[nH]4)c3c2)c1C` [Example 231, 1-{[2-(5-{5-[(ethylamino)methyl]-4-methylpyridin-3-yl}-1H-indazol-3-yl)-1H-imidazol-5-yl]carbonyl}-1,4-diazepan-5-one], the “% Inhib @ 10 nM” value is 67%.

As for `CCNCc1cncc(-c2ccc3[nH]nc(-c4ncc(C(=O)N(CCOC)CCOC)[nH]4)c3c2)c1C` [Example 232, 2-(5-{5-[(ethylamino)methyl]-4-methylpyridin-3-yl}-1H-indazol-3-yl)-N,N-bis(2-methoxyethyl)-1H-imidazole-5-carboxamide], the “% Inhib @ 10 nM” value was found to be 58%.

With `CCNCc1cncc(-c2ccc3[nH]nc(-c4ncc(C(=O)N5CCCCC5Cc5ccccc5)[nH]4)c3c2)c1C` (stereo not drawn) [Example 233, {[5-(3-{5-[(2-benzylpipendin-1-yl)carbonyl]-1H-imidazal-2-yl)-1H-indazol-5-yl)-4-methylpyridin-3-yl]methyl}ethylamine], the “% Inhib @ 10 nM” value is on record as 32%.

In the case of `CCNCc1cncc(-c2ccc3[nH]nc(-c4ncc(C(=O)N5CCc6nc(C)sc6C5)[nH]4)c3c2)c1C` [Example 234, ethyl{[4-methyl-5-(3-{5-[(2-methyl-6,7-dihydro[1,3]thiazolo[5,4-c]pyridin-5-(4H)-yl)carbonyl]-1H-imidazol-2-yl)-1H-indazol-5-yl)pyridin-3-yl]methyl}amine], the “% Inhib @ 10 nM” value turned out to be 74%.

In the case of `CCNCc1cncc(-c2ccc3[nH]nc(-c4ncc(C(=O)NCc5ccc(C(C)(C)O)cc5)[nH]4)c3c2)c1C` [Example 235, 2-(5-{5-[(ethylamino)methyl]-4-methylpyridin-3-yl}-1H-indazol-3-yl)-N-[4-(1-hydroxy-1-methylethyl)benzyl]-1H-imidazole-5-carboxamide], the “% Inhib @ 10 nM” value is given as 63%.

The record behind these values is patent US20050090529A1, “3,5 Disubstituted indazole compounds with nitrogen-bearing 5-membered heterocycles, pharmaceutical compositions, and methods for mediating or inhibiting cell proliferation” (PFIZER INC, priority 2003, published 2005).
